In ChEMBL document CHEMBL1201862, “PubChem BioAssay data set” (2004):
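Grown in 96-well plates, cells were treated for 48 hours with each compound at five concentrations. Insufficient inhibition: endpoint recorded as highest concentration tested. GI50: concentration for 50% inhibition of growth.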 Activity calls are given as the source filed them. Cut-off read from the data, not from the text of the source: active = GI50 up to about 1.1 µM and inactive = higher.

Key:
Assay in all cases: NCI anticancer screen, dose series, 48 h
DU-145 = test system: DU-145
PC-3 = test system: PC-3
SK-OV-3 = test system: SK-OV-3
SK-MEL-5 = test system: SK-MEL-5
NCI/ADR-RES = test system: NCI/ADR-RES
KM12 = test system: KM12
NCI-H460 = test system: NCI-H460
M14 = test system: M14
786-0 = test system: 786-0
COLO 205 = test system: COLO 205
NCI-H226 = test system: NCI-H226
SF-295 = test system: SF-295
SK-MEL-2 = test system: SK-MEL-2
OVCAR-8 = test system: OVCAR-8
BT-549 = test system: BT-549
TK-10 = test system: TK-10
SNB-19 = test system: SNB-19
SR = test system: SR
Hs-578T = test system: Hs-578T
HCT-15 = test system: HCT-15

Row | Structure (SMILES) | GI50 (DU-145) | GI50 (PC-3) | GI50 (SK-OV-3) | GI50 (SK-MEL-5) | GI50 (NCI/ADR-RES) | GI50 (KM12) | GI50 (NCI-H460) | GI50 (M14) | GI50 (786-0) | GI50 (COLO 205) | GI50 (NCI-H226) | GI50 (SF-295) | GI50 (SK-MEL-2) | GI50 (OVCAR-8) | GI50 (BT-549) | GI50 (TK-10) | GI50 (SNB-19) | GI50 (SR) | GI50 (Hs-578T) | GI50 (HCT-15) [µM]
1 | NS(=O)(=O)c1ccc(/N=N/c2cccnc2O)cc1 | > 100 µM (inactive) | > 100 µM (inactive) | > 100 µM (inactive) | > 100 µM (inactive) | > 100 µM (inactive) | > 100 µM (inactive) | > 100 µM (inactive) | > 100 µM (inactive) | > 100 µM (inactive) | > 100 µM (inactive) | > 100 µM (inactive) | > 100 µM (inactive) | > 100 µM (inactive) | > 100 µM (inactive) | > 100 µM (inactive) | > 100 µM (inactive) | > 100 µM (inactive) | > 100 µM (inactive) | > 100 µM (inactive) | > 100
2 | CC(C)(C)n1c(=O)n(C(=O)C(Cl)(Cl)Cl)n(C(=O)C(Cl)(Cl)Cl)c1=O | > 100 µM (inactive) | > 100 µM (inactive) | > 100 µM (inactive) | > 100 µM (inactive) | > 100 µM (inactive) | > 100 µM (inactive) | > 100 µM (inactive) | > 100 µM (inactive) | > 100 µM (inactive) | > 100 µM (inactive) | > 100 µM (inactive) | > 100 µM (inactive) | > 100 µM (inactive) | > 100 µM (inactive) | > 100 µM (inactive) | > 100 µM (inactive) | > 100 µM (inactive) | > 100 µM (inactive) | > 100 µM (inactive) | > 100
3 | O=C1c2c(ccc3c2CCCC3)CC12Cc1ccccc1C2 | 22.3 µM (inactive) | 22.9 µM (inactive) | 30.6 µM (inactive) | 6.19 µM (inactive) | 15.8 µM (inactive) | 16.4 µM (inactive) | 4.93 µM (inactive) | 21 µM (inactive) | 14.2 µM (inactive) | 15.1 µM (inactive) | 9.53 µM (inactive) | 19 µM (inactive) | 17.4 µM (inactive) | 9.84 µM (inactive) | 81.8 µM (inactive) | 28 µM (inactive) | 58.6 µM (inactive) | 4.57 µM (inactive) | 22.5 µM (inactive) | 4.75
4 | Clc1cc(-c2ccccc2)nc(Nc2nc3ccccc3[nH]2)n1 | > 100 µM (inactive) | 44.7 µM (inactive) | 64.7 µM (inactive) | 38.5 µM (inactive) | 43.5 µM (inactive) | 40.2 µM (inactive) | 19 µM (inactive) | 23.7 µM (inactive) | 16.5 µM (inactive) | 13.8 µM (inactive) | 55.5 µM (inactive) | 37.1 µM (inactive) | > 10 µM (inactive) | 22 µM (inactive) | 22.9 µM (inactive) | > 100 µM (inactive) | 83 µM (inactive) | 2.84 µM (inactive) | 27.3 µM (inactive) | 6.95
5 | Nc1ccc2c(c1)S(=O)(=O)c1cc(O)ccc1O2 | > 100 µM (inactive) | > 100 µM (inactive) | > 100 µM (inactive) | > 100 µM (inactive) | > 100 µM (inactive) | > 100 µM (inactive) | > 100 µM (inactive) | > 100 µM (inactive) | > 100 µM (inactive) | > 100 µM (inactive) | > 100 µM (inactive) | > 100 µM (inactive) | > 100 µM (inactive) | > 100 µM (inactive) | 45.6 µM (inactive) | > 100 µM (inactive) | > 100 µM (inactive) | 39.7 µM (inactive) | > 100 µM (inactive) | > 100
6 | O=C1CCC2(CC1)Cc1ccccc1C2O (stereo not given) | > 100 µM (inactive) | > 100 µM (inactive) | > 100 µM (inactive) | > 100 µM (inactive) | > 100 µM (inactive) | > 100 µM (inactive) | > 100 µM (inactive) | > 100 µM (inactive) | > 100 µM (inactive) | > 100 µM (inactive) | > 100 µM (inactive) | > 100 µM (inactive) | > 100 µM (inactive) | > 100 µM (inactive) | > 100 µM (inactive) | > 100 µM (inactive) | > 100 µM (inactive) | > 100 µM (inactive) | > 100 µM (inactive) | > 100
